Measurements published in patent US20220056123A1, “USE OF IL-1BETA BINDING ANTIBODIES” (NOVARTIS AG, priority 2018, published 2022).

Legend:
[1] = test system: patients with atherosclerosis who had had a myocardial infarction; settings: compared with placebo, median follow-up 3.7 years, cited from earlier work
[2] = test system: MDA-MB-231Luc2-TdTomato cells; experiment: Spontaneous human breast cancer metastasis to human bone implants; format: in vivo, NOD SCID mice
Experimental: FIG. 4. Pharmacological blockade of IL-1B inhibits spontaneous metastasis to human bone in vivo. Female NOD-SCID mice bearing two 0.5 cm^3 pieces of human femoral bone received intra-mammary injections of MDA-MB-231Luc2-TdTomato cells. […] All animals were culled 35 days following tumour cell injection. Effects on bone metastases (a) were assessed in vivo and immediately post-mortem by luciferase imaging and confirmed ex vivo on histological sections. Data are shown as numbers of photons per second emitted 2 minutes following sub-cutaneous injection of D-luciferin. Effects on numbers of tumour cells detected in the circulation are shown in (b). *=P<0.01. **=P<0.001. ***=P<0.0001.
(§1) To model human breast cancer metastasis to human bone implants two human bone discs were implanted subcutaneously into 10-week old female NOD SCID mice (n=10/group) under isofluorane anaesthetic. Mice received an injection of 0.003 mg vetergesic and Septrin was added to the drinking water for 1 week following bone implantation. Mice were left for 4 weeks before injecting 1×10^5 MDA-MB-231 Luc2-TdTomato, MCF7 Luc2 or T47D Luc2 cells in 20% Martigel/79% PBS/1% toluene blue into the two hind mammary fat pads. Primary tumor growth and development of metastases was monitored weekly using an IVIS […] system (Caliper Life Sciences) following sub-cutaneous injection of 30 mg/ml D-luciferin (Invitrogen). On termination of experiments mammary tumors, circulating tumor cells, serum and bone metastases were resected. RNA was processed for downstream analysis by real time PCR, and cell lysates were taken for protein analysis and whole tissue for histology as previously described (Nutter et al., 2014; Ottewell et al., 2014a). […] Tumor cells, serum, and bone were subsequently resected for downstream analysis. Bone metastases were investigated following injection of 5×10^5 MDA-MB-231 GFP (control), MDA-MB-231-IV, MDA-MB-231-IL-1B-positive or MDA-MB-231-IL-1R1-positive cells into the lateral tail vein of 6 to 8-week old female BALB/c nude mice (n=12/group). Tumor growth in bones and lungs was monitored weekly by GFP imaging in live animals. Mice were culled 28 days after tumor cell injection at which timepoint hind limbs, lungs and serum were resected and processed for microcomputed tomography imaging (pCT), histology and ELISA analysis of bone turnover markers and circulating cytokines as described (Holen et al., 2016).
Whole blood was centrifuged at 10,000×g for 5 minutes and the serum removed for ELISA assays. The cell pellet was re-suspended in 5 ml of FSM lysis solution (Sigma-Aldrich, Pool, UK) to lyse red blood cells. Remaining cells were re-pelleted, washed 3× in PBS and re-suspended in a solution of PBS/10% FCS. Samples from 10 mice per group were pooled prior to isolation of TdTomato positive tumor cells using a MoFlow High performance cell sorter (Beckman Coulter, Cambridge UK) with the […] laser line from a Coherent I-90C tenable argon ion (Coherent, Santa Clara, Calif.). TdTomato fluorescence was detected by a 555LP dichroic long pass and a 580/30 nm band pass filter. Acquisition and analysis of cells was performed using Summit 4.3 software. After sorting, cells were immediately placed in RNA protect cell reagent (Ambion, Paisley, Renfrew, UK) and stored at −80° C. before RNA extraction. For counting numbers of circulating tumor cells, TdTomato fluorescence was detected using a 561 nm laser and an YL1-A filter (585/16 emission filter). Acquisition and analysis of cells was performed using Attune N×T software.

[3] = test system: CD34+ blood vessels in trabecular bone; experiment: Bone microvasculature after suppression of IL-1β signalling; format: in vivo, BALB/c nude mice and C57BL/6 mice
Experimental: FIG. 7. IL-1β in the bone microenvironment stimulates expansion of the bone metastatic niche. Effects of adding 40 pg/ml or 5 ng/ml recombinant IL-1β to MDA-MB-231 or T47D breast cancer cells is shown in (a) and effects on adding 20 pg/ml, 40 pg/ml or 5 ng/ml IL-1B on proliferation of HS5, bone marrow, or OB1, osteoblasts, are shown in b) and c) respectively. (d) IL-1 driven alterations to the bone vasculature was measured following CD34 staining in the trabecular region of the tibiae from 10-12-week old female IL-1R1 knockout mice. […] Data are shown as mean+/−SEM, *=P<0.01, **=P<0.001, ***=P<0.0001.
FIG. 8. Suppression of IL-1β signalling affects bone integrity and vasculature. […] Data shown are mean+/−SEM, *=P<0.01, **=P<0.001, ***=P<0.0001 compared with control.
as §1

canakinumab: high-affinity, fully human monoclonal antibody of the IgG1/k to interleukin-1β
reductions in concentrations of hsCRP ([1]; dose-dependent (50, 150, 300 mg sc every 3 months)): 26-41%
reductions in concentrations of interleukin 6 ([1]; dose-dependent): 25-43%
mice with metastasis detected in human bone implants ([2]; IL-1Ra 1 mg/kg daily, canakinumab sc every 14 days, from 7 days after tumor cell injection, control 7 out of 10): 1 out of 10
size of bone metastases ([2]; luciferase imaging, vs control group): smaller than those detected in the control group
tumor cells counted in whole blood ([2]; placebo 108 tumor cells/ml): 3 tumor cells/ml
average length of CD34+ blood vessels in trabecular bone ([3]; IL-1Ra 1 mg/kg daily (BALB/c nude), canakinumab single dose (C57BL/6), p<0.01): reduced the average length
endothelin 1 concentration (ELISA) ([3]; compared with control, p<0.01): reduced concentrations
VEGF concentration (ELISA) ([3]; compared with control, p<0.01 IL-1R antagonist, p<0.001 canakinumab): reduced concentrations
